The nature of data set [1]: Solubility of the isolated conjugate in methanol and water. To be noted: isolated product after preparative TLC. The format is physicochemical. How it is done: More particularly, 2.2 mg (4 micromoles) of 6-((4,4-difluoro-5,7-dimethyl-4-bora-3a,4a-diaza-s-indacene-3-propionyl)amino)hexanoic acid, succinimidyl ester was dissolved in 0.3 ml of DMF followed by the addition of 6 mg (28 micromoles) of glucosamine HCL dissolved in 0.3 ml of water and 3.9 microliters (28 micromoles) of triethyl amine. The reaction was stirred for 24 hrs at room temperature, evaporated under reduced pressure, and dissolved in a minimum of methanol. This solution was spread on a preparative TLC plate (silica), dried, and developed with 2.5% water in acetonitrile. The plate was then dried and the product visualized with a UV light.
About 4 mg (4.8 micromoles) of Texas Red®-X, succinimidyl ester *single isomer* (816.94 MW, Molecular Probes, T-20175) were dissolved in 1.2 ml of methanol and combined with 4 mg (18 micromoles) of glucosamine HCl (Sigma) in 600 microliters of water. About 2.5 microliters (18 micromoles) of triethylamine were then added. The reaction was stirred overnight at 20° C. and then evaporated under reduced pressure. The gum was dissolved in methanol and spread on a preparative TLC plate (silica), dried, and developed with 10% water in acetonitrile. The plate was then dried and the product visualized with a UV light. […] B. Synthesis of 5-(and 6) Carboxynaphtofluorescein Glucosamine Conjugate [drawing 12]
About 8.3 mg (14 micromoles) of 5-(and-6)-carboxynaphthofluorescein, succinimidyl ester *mixed isomers* (MW 573.51, Molecular Probes, C-653) were dissolved in 2 ml of DMF, and 10 mg (46 micromoles) of glucosamine HCl (Sigma) in 1 ml of water was added. About 5.8 microliters (46 micromoles) of triethylamine were then added. The reaction was stirred overnight at 20° C. and then evaporated under reduced pressure. The gum was dissolved in 25% water in methanol and spread on a preparative TLC plate (silica), dried, and developed with 10% water in acetonitrile. The plate was then dried and the product visualized with a UV light. […] C. Synthesis of Glucosamine N-Methylanthranilamide Conjugate [drawing 13]

Data set [2] has as its system Raji lymphoma cells. The data set is described as follows: 2-NBDG uptake in Raji lymphoma cells versus peripheral blood white cells (PBMC). In kind it is cell-based. Conditions: Raji lymphoma cells vs PBMC; 200 uM; 40 min; 37° C.; fluorescence plate reader (FIG. 2). How it is done:
Raji cells from culture one t-75 flask. Peripheral blood white cells from Stanford Blood Bank. Leukocytes were further separated by Ficoll separation (twice). These cells are referred to as PBMC (peripheral blood mononuclear cells). Phosphate-buffered saline. 2-NBDG, 0.1 M in water.
Culture medium with cells (either Raji or PBMC, 15 mL) were centrifuged for 10 min at 800×g. The pellet of cells was resuspended in PBS and centrifuged for 10 min at 800×g, and the resulting pellet was resuspended in 1.5 mL PBS. Cells were counted and adjusted to 1×10^6 per mL for both. Aliquots (100 uL) were placed into each of 2 tubes for each cell type, and the tubes were incubated at 37° C. for 15 min. The fluorescent deoxyglucose conjugate 2-NBDG was added to each tube to provide a concentration of 200 uM. At 40 min, the tubes were removed from the 37° C. bath and immediately placed on ice. The cells were washed twice with PBS and resuspended in 100 uL of PBS. A 20 uL aliquot was placed in each of 5 wells of an LJL 96-well plate, and fluorescence was counted by a LJL plate reader.

`O=C(NC1C(O)OC(CO)C(O)C1O)c1ccc(C(=O)O)c(-c2c3ccc4cc(O)ccc4c3oc3c2ccc2cc(=O)ccc23)c1` (centres unmarked): in data set [1], the solubility in methanol entry is “soluble” and the solubility in water result is recorded as “sparingly soluble”. Turning to `O=C(CCCCCNS(=O)(=O)c1ccc(C2=c3cc4c5c(c3Oc3c2cc2c6c3CCCN6CCC2)CCC[N+]=5CCC4)c(S(=O)(=O)[O-])c1)NC1C(O)OC(CO)C(O)C1O` (single isomer, unassigned) [Texas Red Glucosamine Conjugate], in data set [1], the solubility in methanol entry was “soluble” and the solubility in water entry is reported as “sparingly soluble”. As for `O=C[C@H](Nc1ccc([N+](=O)[O-])c2nonc12)[C@@H](O)[C@H](O)[C@H](O)CO` [2-NBDG, 2-(N-(7-nitrobenz-2-oxa-1,3-diazol-4-yl)amino)-2-deoxyglucose], the “uptake by a cancer cell as compared to a normal cell” value in data set [2] is “preferred uptake”.

For the origin of these results see US6989140B2, “Methods for cancer imaging” (Threshold Pharmaceuticals, Inc., priority 2001, dated 2006).
